From ChEMBL document CHEMBL5576100, “Genome-Driven Discovery of Antiviral Atralabdans A-C from the Soil-Dwelling Streptomyces atratus” (J Nat Prod, 2024) come the findings set out here.

Data set [1] deals with Coxsackievirus B3. Put plainly: Antiviral activity against Coxsackievirus B3 infected in human Hep-2 cells assessed as inhibition of virus-induced cytopathic effect measured after 48 hrs by MTT assay. Format: functional, organism-based. To be noted: Enterovirus B, HEp-2, 48 h. On the technique in general: Cytopathic effects are the visible damage that an infection or toxin causes in cultured cells.

The test system of data set [2] is Coxsackievirus B3. Put plainly: Antiviral activity against Coxsackievirus B3 infected in human Hep-2 cells assessed as protection against virus-induced pathological changes measured after 48 hrs by microscopic analysis. In kind it is functional, organism-based.
In data set [3] the test system is Coxsackievirus B3. Put plainly: Antiviral activity against Coxsackievirus B3 infected in human Hep-2 cells assessed as inhibition of virus-induced cytopathic effect measured after 48 hrs by MTT assay relative to control. In kind it is functional.
For data set [4], the system named is Coxsackievirus B3. Put plainly: Antiviral activity against Coxsackievirus B3 infected in human Hep-2 cells assessed as protection against virus-induced apoptosis measured after 48 hrs by microscopic analysis. In kind it is functional, organism-based.
The subject of the next data set is Micrococcus luteus. Put plainly: Antimicrobial activity against Micrococcus luteus assessed as zone of inhibition at 80 ug measured after 1 to 2 days by paper disk diffusion method. To be noted: dose 80.0 µg, time 1-2 day. In kind it is functional, organism-based. In general terms: A growth-free zone around the sample is the usual read-out of agar diffusion tests.

A further data set concerns Serratia entomophila. Put plainly: Antimicrobial activity against Serratia entomophila DSM 12358 assessed as zone of inhibition at 80 ug measured after 1 to 2 days by paper disk diffusion method. In kind it is functional, organism-based. To be noted: dose 80.0 µg, time 1-2 day.
The test system of the next data set is Saccharomyces cerevisiae. Put plainly: Antimicrobial activity against Saccharomyces cerevisiae assessed as zone of inhibition at 80 ug measured after 1 to 2 days by paper disk diffusion method. Format: functional, organism-based. The following applies: dose 80.0 µg, time 1-2 day.
A short description of data set [5]: Selectivity index, ratio of CC50 for human Hep-2 cells to EC50 for antiviral activity against Coxsackievirus B3 infected in human Hep-2 cells. Format: toxicity, cell-based. To be noted: read-out: Ratio CC50/EC50.
The subject of a further data set is Pseudomonas sp. Put plainly: Antimicrobial activity against Pseudomonas sp. assessed as zone of inhibition at 80 ug measured after 1 to 2 days by paper disk diffusion method. In kind it is functional, organism-based. The following applies: dose 80.0 µg, time 1-2 day.
In data set [6] the test system is Coxsackievirus B3. Put plainly: Antiviral activity against Coxsackievirus B3 infected in human Hep-2 cells assessed as log reduction in viral progeny yield measured after 48 hrs relative to control. In kind it is functional.
The test system of data set [7] is Staphylococcus aureus. Put plainly: Potentiation of imipenem-induced antimicrobial activity against Staphylococcus aureus at 10 ug measured after 18 to 24 hrs in presence of 0.5 ug/ml imipenem by paper disk diffusion method. In kind it is functional, organism-based. The following applies: dose 10.0 µg, time 18-24 hrs.
The nature of data set [8]: Cytotoxicity against Coxsackievirus B3 infected human Hep-2 cells assessed as reduction in cell viability measured after 48 hrs by MTT assay. To be noted: Coxsackievirus B3 infected Hep-2 cells. Format: toxicity, cell-based. Background: Tetrazolium dyes change colour on reduction, which living cells bring about.
The next data set relates to Escherichia coli. Put plainly: Antimicrobial activity against Escherichia coli DH10B assessed as zone of inhibition at 80 ug measured after 1 to 2 days by paper disk diffusion method. Format: functional, organism-based. To be noted: dose 80.0 µg, time 1-2 day.
Data set [9] deals with Staphylococcus aureus. Put plainly: Antimicrobial activity against Staphylococcus aureus assessed as zone of inhibition at 80 ug measured after 1 to 2 days by paper disk diffusion method. In kind it is functional. The following applies: time 1-2 day, read-out: IZ.
The test system of data set [10] is Staphylococcus aureus. Put plainly: Antimicrobial activity against Staphylococcus aureus assessed as diameter of zone of inhibition at 0.25 ug/ml measured after 18 to 24 hrs by paper disk diffusion method. The following applies: dose 0.25 µg/ml, time 18-24 hrs. Format: functional, organism-based.
For data set [11], the system named is Staphylococcus aureus. Put plainly: Antimicrobial activity against Staphylococcus aureus assessed as diameter of zone of inhibition at 0.5 ug/ml measured after 18 to 24 hrs by paper disk diffusion method. Format: functional. The following applies: time 18-24 hrs, read-out: DIZ.

Activity calls are given as the source filed them. No cut-off for these calls is given here.

In general, EC50 refers to the midpoint of the concentration-response curve. As a reminder, the CC50 is the concentration that lowers cell viability or growth by half.

As for `C=C[C@@](C)(O)[C@H]1C[C@H]2C(=C)[C@@H]3C[C@H]4C(C)(C)CCC[C@]24[C@H]1O3`, the EC50 in the data set on Coxsackievirus B3 [1] amounted to 27.2 µM. Moreover, the result in the data set on Coxsackievirus B3 [2] and in the data set with Coxsackievirus B3 [4] was Active. Besides, in the data set with Coxsackievirus B3 [3], the Imax is listed as 91.2%. The “inhibition zone (IZ)” value with Micrococcus luteus, in the data set on Serratia entomophila, in the data set with Saccharomyces cerevisiae, with Pseudomonas sp. and in the data set with Escherichia coli was “inactive” each time. The selectivity ratio in data set [5] worked out at 6.2. Also, the “log(activity)” value with Coxsackievirus B3 [6] was about 4.5. Moreover, the result in the data set on Staphylococcus aureus [7] was inactive. In [8], the CC50 at 48 h is 168 µM. Moreover, the zone of inhibition at 80 µg/disc in the data set on Staphylococcus aureus [9] is about 1 mm.
As to `C=C[C@@](C)(O)[C@@H]1C[C@H]2C(=C)[C@@H]3C[C@H]4C(C)(C)CCC[C@]24[C@H]1O3`, the EC50 in the data set on Coxsackievirus B3 [1] turned out to be 76.8 µM. The result in the data set on Coxsackievirus B3 [2] and with Coxsackievirus B3 [4] was Active. The Imax in the data set with Coxsackievirus B3 [3] was 90.1%. Also, the “inhibition zone (IZ)” value in the data set with Micrococcus luteus, in the data set on Serratia entomophila, in the data set on Saccharomyces cerevisiae, in the data set with Pseudomonas sp. and in the data set with Escherichia coli was “inactive” throughout. Besides, in data set [5], the selectivity ratio was determined as 2. Further, the outcome with Staphylococcus aureus [7] was inactive. Further, in data set [8], the CC50 at 48 h is 160 µM. Moreover, in the data set on Staphylococcus aureus [9], the zone of inhibition at 80 µg/disc was about 1 mm.
As for `NC(=O)c1ncn([C@@H]2O[C@H](CO)[C@@H](O)[C@H]2O)n1` [RIBAVIRIN], the EC50 in the data set with Coxsackievirus B3 [1] stood at 114 µM. The selectivity ratio in data set [5] stood at 3.4. Further, the CC50 at 48 h in data set [8] was found to be 386 µM.
As for `C[C@@H](O)[C@H]1C(=O)N2C(C(=O)O)=C(SCCNC=N)C[C@H]12` [IMIPENEM ANHYDROUS], the “diameter of the inhibition zone (DIZ)” value with Staphylococcus aureus [10] is “inactive”. The zone of inhibition at 0.5 µg/mL in the data set with Staphylococcus aureus [11] was about 2 mm.
With `C=C[C@](C)(O)[C@H]1C[C@H]2C(=C)[C@@H]3C[C@H]4C(C)(C)CCC[C@]24[C@H]1O3`, in the data set on Coxsackievirus B3 [1], the EC50 amounted to 42.7 µM. Besides, the result with Coxsackievirus B3 [2] and in the data set with Coxsackievirus B3 [4] was Active. Besides, in the data set on Coxsackievirus B3 [3], the Imax amounted to 85.3%. In addition, the “inhibition zone (IZ)” value in the data set on Micrococcus luteus, in the data set on Serratia entomophila, in the data set on Saccharomyces cerevisiae, with Pseudomonas sp. and in the data set with Escherichia coli was “inactive” throughout. Also, in data set [5], the selectivity ratio came out at 3.8. Moreover, the outcome with Staphylococcus aureus [7] was inactive. The CC50 at 48 h in data set [8] worked out at 161 µM. In the data set on Staphylococcus aureus [9], the zone of inhibition at 80 µg/disc was about 1 mm.
